System: rgRSV224
Experiment: microbe, parasite or virus in culture
Type: cell-based, RSV
Settings: for normalized data (GFP response): average across 12 replicates
Method: To evaluate their combined antiviral effect against RSV, in vitro combination studies were performed with Compound A, i.e. 3-({5-chloro-1-[3-(methylsulfonyl)propyl]-1H-indol-2-yl}methyl)-1-(2,2,2-trifluoroethyl)-1,3-dihydro-2H-imidazo[4,5-c]pyridin-2-one, and Compound B, i.e. (1S,2S)-2-[4-[7-cyclopropyl-5-[(1R)-1-methyl-3,4-dihydro-1H-isoquinoline-2-carbonyl]pyrazolo[1,5-a]pyrimidin-2-yl]-3-fluoro-phenyl]cyclopropanecarboxylic acid. In short, 9 concentrations of Compound A were combined with 6 or 7 concentrations of Compound B. HeLa cells were infected with rgRSV224, an engineered RSV strain that encodes for eGFP (Hallak L K, Spillmann D, Collins P L, Peeples M E. Glycosaminoglycan sulfation requirements for respiratory syncytial virus infection; Journal of Virology (2000), 74(22), 10508-13), in the presence of various concentrations of compound A and compound B individually or in combination.
Compound stock solutions were 5 mM in 100% DMSO. First, the compounds were serially diluted in 3-fold dilution series in DMSO. The concentration series were diluted 100-fold in cell culture medium to achieve a combination matrix. 10 μL of these compound solutions were transferred to black 384-well clear-bottom tissue-culture treated plates. Next, 10 μL of a […] HeLa cell suspension was added to achieve 3000 cells per well. Finally, 10 μL of diluted virus stock was added to achieve an MOI of 1. The final DMSO concentration of all wells was 0.5% DMSO. Each combination of compound concentrations was tested in 4 replicates on 3 separate plates, resulting in a total of 12 replicates. The plates were incubated for 3 days at 37° C. in a humidified atmosphere at 5% CO2. The GFP signal was measured with PerkinElmer EnVision apparatus using a 405 nm filter.
The method of Harbron (Statistics in Medicine, 2010, DOI:10.1002/sim3916) was used to assess synergy. Using the Loewe definition, two compounds are characterized as being additive, synergistic or antagonistic by:
where d1 and d2 represent the doses of the two compounds that in combination produce an effect y, and Dy,1 and Dy,2 represent the doses of the two compounds that produce the same effect, y, when administered as a monotherapy. A 3PL model (3-parameter log-logistic model) was used for the monotherapy dose-response data, where the baseline response was fixed at one.
Following Harbron's approach, the following models were fitted to the data: • “Additive”: assuming no interaction between the two compounds • “Uniform”: assuming a constant interaction index τ across all dose combinations • “Linear A”: assuming the interaction index linearly depends on the log 10 dose of compound A: τ=τ1+τ2 log 10(dA) • “Separate A”: assuming the interaction index τ takes a separate value for each dose of compound A
The latter two models were also considered for compound B: • “Linear B”: assuming the interaction index linearly τ depends on the log 10 dose of compound B: τ=τ1+τ2 log 10(dB) • “Separate B”: assuming the interaction index τ takes a separate value for each dose of compound B

Row | SMILES | normalized data (GFP response) (A = 0.19, B = 0) | normalized data (GFP response) (A = 0.57, B = 0) | normalized data (GFP response) (A = 1.7, B = 0) | normalized data (GFP response) (A = 5.1, B = 0) | normalized data (GFP response) (A = 15, B = 0) | normalized data (GFP response) (A = 46, B = 0) | normalized data (GFP response) (A = 139, B = 0) | normalized data (GFP response) (A = 417, B = 0) | normalized data (GFP response) (A = 1250, B = 0) | EC50 (human respiratory syncytial virus, HeLa, read-out: EC50 (dose at τ EC50)) [µM] | normalized data (GFP response) (A = 0, B = 4.6) | normalized data (GFP response) (A = 0, B = 14) | normalized data (GFP response) (A = 0, B = 42) | normalized data (GFP response) (A = 0, B = 125) | normalized data (GFP response) (A = 0, B = 375) | normalized data (GFP response) (A = 0, B = 1125)
1 | CS(=O)(=O)CCCn1c(Cn2c(=O)n(CC(F)(F)F)c3ccncc32)cc2cc(Cl)ccc21 [Compound A, 3-({5-chloro-1-[3-(methylsulfonyl)propyl]-1H-indol-2-yl}methyl)-1-(2,2,2-trifluoroethyl)-1,3-dihydro-2H-imidazo[4,5-c]pyridin-2-one] | 1.07 | 1.05 | 0.99 | 0.74 | 0.48 | 0.29 | 0.18 | 0.08 | 0.06 | 0.0131 |  |  |  |  |  | 
2 | C[C@@H]1c2ccccc2CCN1C(=O)c1cc(C2CC2)n2nc(-c3ccc([C@H]4C[C@@H]4C(=O)O)cc3F)cc2n1 [Compound B, (1S,2S)-2-[4-[7-cyclopropyl-5-[(1R)-1-methyl-3,4-dihydro-1H-isoquinoline-2-carbonyl]pyrazolo[1,5-a]pyrimidin-2-yl]-3-fluoro-phenyl]cyclopropanecarboxylic acid] |  |  |  |  |  |  |  |  |  |  | 1.13 | 1.04 | 0.37 | 0.07 | 0.00 | 0.00

From patent publication US11369612B2, “Treatment of RSV with combination product” (Janssen Sciences Ireland Unlimited Company, priority 2017, dated 2022)
